From patent US6693095B2, “Antibacterial substituted 7-acylamino-3-(methylhydrazono) methyl-cephalosporins and intermediates” (priority 1997, dated 2004)

System: multi-drug resistant Pneumococcus
Experiment: Agar Dilution Test (NCCLS), MHK
Format: cell-based, Pneumococcus pneumoniae
Details: against multi-drug resistant Pneumococcus
Text: In particular, the active compounds of the invention show antimicrobial, e.g. antibacterial, activity against aerobic and anaerobic growing bacteria, e.g. gram negative and gram positive bacteria such as Enterobacter, e.g. Enterobacter cloacae; Enterococcus, e.g. Enterococcus faecalis, Enterococcus faecium; Moraxella, e.g. Moraxella catarrhalis; Haemophilus, e.g. Haemophilus influenza; Klebsiella, e.g. Klebsiella edwardsii, Klebsiella pneumoniae; Streptococcus, e.g. Streptococcus pyogenes; Staphylococcus, e.g. Staphylococcus aureus MSSA (methicillin sensitive strains); Staphylococcus aureus MRSA (methicillin resistant strains); Escherichia, e.g. Escherichia coli; Proteus, e.g. Proteus mirabilis, Salmonella, e.g. Salmonella typhimurium, Serratia, e.g. Serratia marcescens, Pseudomonas, e.g. Pseudomonas aeruginosa; Pneumococci, e.g. Pneumococcus pneumoniae (penicillin sensitive and mult-drug resistant strains); in vitro in the Agar DilutionTest for bacteria according to National Commitee for Clinical Laboratory Standards (NCCLS) 1993,
Document-M7-A3 Vol.13, No. 25: “Methods for dilution Antimicrobial Susceptibility Tests for Bacteria that Grow Aerobically-Third Edition, Approved Standard”; and
Document M11-A3 for anaerobic bacteria […]

“7-(((5-amino-1,2,4-thiadiazol-3-yl)-(Z)-(fluoromethoxyimino)acetyl)amino)-3-(imino-1-piperazinyhmethyl)medtylhydrazono)methyl-3-cephem4-carboxylic acid [Example 1]” was tested, and the MHK was 0.4 µg/mL.
